Values of other authors, collected in patent US20220249381A1, “COMPRESSED MACITENTAN COMPOSITIONS, METHODS AND USES THEREOF” (TECNIMEDE - SOCIEDADE TÉCNICO-MEDICINAL, SA, priority 2019, published 2022).

CCCNS(=O)(=O)Nc1ncnc(OCCOc2ncc(Br)cn2)c1-c1ccc(Br)cc1 [Macitentan, N-[5-(4-Bromophenyl)-6-[2-[(5-bromo-2-pyrimidinyl)oxy]ethoxy]-4-pyrimidinyl]-N′propylsulfamide]
solubility (BCS characterisation): low solubility
solubility in organic solvents (methanol and ethanol): only slightly soluble
solubility in aqueous solutions (room temperature, pH 1.2, 4, 6.8, 7, 9): insoluble
